This is an account of results in article PMC9697446 (International Journal of Molecular Sciences, 2022).

SMILES strings stand for the structures.

The experiment concerns primary culture of rat cerebellar granule cells (CGC). The experiment is described as follows: Ionomycin-induced toxicity in cerebellar granule cells, MTT assay. To be noted: ionomycin 3 µM. In kind it is cell-based. How it is done:
This neurotoxicity model reflects the calcium stress involved with several types of insults, such as amyloid toxicity, excitotoxicity, and ischemic damage. The viability of the primary culture of rat cerebellar granule cells (CGC) and brain cortical neurons (BCN) was assessed by the MTT assay in the presence of various concentrations of compound 4i.
Cerebellar granule cells (CGC) and brain cortical neurons (BCN) were isolated from P-7 or P0-2 rat’s pups, respectively, using a previously described protocol. Once removed, cerebella or brain cortex were digested for 15 min in 0.025% type II trypsin (w/v) at 37 °C. Ice-cold DMEM containing 5% (w/v) fetal bovine serum was added to inactivate the trypsin. […] After 8-10 day in culture the cells were incubated with a test compound or an equal volume of the DMSO (<1% (v/v) of the whole volume of the medium under the layer of cells and 3 µM ionomycin for 24 h. The cell viability was then evaluated as the dehydrogenase activity with the 3-(4,5-dimethylthiazol-2-yl)-2,5-diphenyltetrazolium bromide (MTT) assay. The absorbance was measured at 570 nm using a Victor microplate reader (Perkin Elmer), and data were normalized with intact control assumed 100%.
(In general: Tetrazolium assays rely on reduction of a dye to a coloured formazan, in cell work by metabolically active cells.)

As to `CC1CCc2c(c3cc(OC(F)(F)F)ccc3n2CCC(=O)N2c3ccc(N(C)C)cc3Sc3cc(N(C)C)ccc32)C1` (stereo not shown) [Compound 4i], the “Protection from ionomycin-induced toxicity, CGC” value is on record as “statistically significant protection”.
